According to patent US20260365677A1, “NEW CONTRAST AGENTS FOR USE IN DIAGNOSTIC IMAGING” (Bayer Aktiengesellschaft, priority 2022, published 2026):

Assay: Exploratory water solubility in 10 mM Tris-HCl buffer, pH 7.4
Format: physicochemical
Conditions: aqueous buffer (10 mM Tris-HCl), 20 °C
Protocol: The exploratory water solubility of the compounds is determined at room temperature (20 °C) in 0.5 mL buffer solution (10 mM Tris-HCl, pH 7.4) in the microcentrifuge tubes (Eppendorf, 2.0 mL safe-lock caps). The solid compounds were added stepwise to the buffer solution. More substance is added once all the suspended material is dissolved until an equilibrium between undissolved and dissolved substance is reached. The suspension was mixed using a shaker (Heidolph Reax 2000) and treated 5 min in an ultrasound bath (Bandelin, Sonorex Super RK255H). The Gadolinium concentration of the test substance in the clear solution is measured by ICP-MS.

| Structure (SMILES) | Solubility [mM] |
| --- | --- |
| CCOCCOCCOc1ccc(C[C@H]2CN(CC(=O)[O-])CCN(CC(=O)[O-])CCN(CC(=O)O)CCN2CC(=O)[O-])cc1.[Gd+3] [Example 2, Gadolinium-2,2′,2″-[(2S)-10-(carboxymethyl)-2-{4-[2-(2-ethoxyethoxy)ethoxy]benzyl}-1,4,7,10-tetraazacyclododecane-1,4,7-triyl]triacetate] | >55 |
| CCOc1ccc(CC2CN(CC(=O)[O-])CCN(CC(=O)[O-])CCN(CC(=O)O)CCN2CC(=O)[O-])cc1.[Gd+3] (stereo not shown) [Example 7, Gadolinium-2,2′,2″-[10-(carboxymethyl)-2-(4-ethoxybenzyl)-1,4,7,10-tetraazacyclododecane-1,4,7-triyl]triacetate] | >403 |
| CCOc1ccc(CC2CN(CC(=O)[O-])CCN(CC(=O)[O-])CCN(CC(=O)O)CCN2CC(=O)[O-])cc1.[Gd+3] (single isomer, unassigned; diastereomer 2) [Example 9, Gadolinium-2,2′,2″-[10-(carboxymethyl)-2-(4-ethoxybenzyl)-1,4,7,10-tetraazacyclododecane-1,4,7-triyl]triacetate (racemic diastereomer 2)] | >145 |
| CCOCCOc1ccc(C[C@H]2CN(CC(=O)[O-])CCN(CC(=O)[O-])CCN(CC(=O)O)CCN2CC(=O)[O-])cc1.[Gd+3] [Example 4, Gadolinium-2,2′,2″-{(2S)-10-(carboxymethyl)-2-[4-(2-ethoxyethoxy)benzyl]-1,4,7,10-tetraazacyclododecane-1,4,7-triyl}triacetate] | >738 |
| COCCOCCOCCOc1ccc(C[C@H]2CN(CC(=O)[O-])CCN(CC(=O)[O-])CCN(CC(=O)O)CCN2CC(=O)[O-])cc1.[Gd+3] [Example 1, Gadolinium-2,2′,2″-[(2S)-10-(carboxymethyl)-2-(4-{2-[2-(2-methoxyethoxy)-ethoxy]ethoxy}benzyl)-1,4,7,10-tetraazacyclododecane-1,4,7-triyl]triacetate] | >201 |
| COCCOCCOCCOc1ccc(C[C@@H]2CN(CC(=O)[O-])CCN(CC(=O)[O-])CCN(CC(=O)O)CCN2CC(=O)[O-])cc1.[Gd+3] [Example 3, Gadolinium-2,2′,2″-[(2R)-10-(carboxymethyl)-2-(4-{2-[2-(2-methoxyethoxy)ethoxy]ethoxy}benzyl)-1,4,7,10-tetraazacyclododecane-1,4,7-triyl]triacetate] | >166 |
| CCCCOc1ccc(C[C@H]2CN(CC(=O)[O-])CCN(CC(=O)[O-])CCN(CC(=O)O)CCN2CC(=O)[O-])cc1.[Gd+3] (single isomer, unassigned; stereoisomer 2) [Example 13] | >43 |
| CCCCOc1ccc(C[C@H]2CN(CC(=O)[O-])CCN(CC(=O)[O-])CCN(CC(=O)O)CCN2CC(=O)[O-])cc1.[Gd+3] (single isomer, unassigned; stereoisomer 1) [Example 12] | 211 |
| CCOc1ccc(C[C@H]2CN(CC(=O)[O-])CCN(CC(=O)[O-])CCN(CC(=O)O)CCN2CC(=O)[O-])cc1.[Gd+3] (single isomer, unassigned; stereoisomer 1) [Example 10] | >23 |
| CCOCCOCCOCCOc1ccc(C[C@H]2CN(CC(=O)[O-])CCN(CC(=O)[O-])CCN(CC(=O)O)CCN2CC(=O)[O-])cc1.[Gd+3] [Example 5, Gadolinium-2,2′,2″-[(2S)-10-(carboxymethyl)-2-(4-{2-[2-(2-ethoxyethoxy)ethoxy]ethoxy}benzyl)-1,4,7,10-tetraazacyclododecane-1,4,7-triyl]triacetate] | >284 |
| CCOc1ccc(C[C@H]2CN(CC(=O)[O-])CCN(CC(=O)[O-])CCN(CC(=O)O)CCN2CC(=O)[O-])cc1.[Gd+3] (single isomer, unassigned; stereoisomer 2) [Example 11] | >146 |

Assay: No-observed-adverse-effect level (NOAEL) in mice
Conditions: intravenous bolus injection

| Structure (SMILES) | NOAEL [mmol Gd/kg bw] |
| --- | --- |
| CCOc1ccc(CC2CN(CC(=O)[O-])CCN(CC(=O)[O-])CCN(CC(=O)O)CCN2CC(=O)[O-])cc1.[Gd+3] (stereo not shown) [Example 7, Gadolinium-2,2′,2″-[10-(carboxymethyl)-2-(4-ethoxybenzyl)-1,4,7,10-tetraazacyclododecane-1,4,7-triyl]triacetate] | 1.50 |
| CCOCCOc1ccc(C[C@H]2CN(CC(=O)[O-])CCN(CC(=O)[O-])CCN(CC(=O)O)CCN2CC(=O)[O-])cc1.[Gd+3] [Example 4, Gadolinium-2,2′,2″-{(2S)-10-(carboxymethyl)-2-[4-(2-ethoxyethoxy)benzyl]-1,4,7,10-tetraazacyclododecane-1,4,7-triyl}triacetate] | 2.50 |
